Measurements reported in patent US20120122860A1, “SOLID FORMS OF SULFONAMIDES AND AMINO ACIDS” (Plexxikon, Inc., priority 2009, published 2012).

What was measured:
[1] = biological target: PI3Kα (Homo sapiens, UniProt P42336); assay: Kinase activity assay, PI3Kα
[2] = biological target: Src (Homo sapiens, UniProt P12931); assay: Kinase activity assay, Src
[3] = biological target: B-Raf (Homo sapiens, UniProt P15056); assay: Kinase activity assay, B-Raf; type: biochemical; details: read-out: activity toward kinase B-Raf, IC50
[4] = biological target: B-Raf V600E (Homo sapiens, UniProt P15056, V600E); assay: Kinase activity assay, B-Raf V600E; type: biochemical; details: read-out: activity toward kinase B-Raf V600E, IC50
[5] = biological target: T1, TEC (Homo sapiens, UniProt P42680); assay: Kinase activity assay, TEC
T1 sequence (P42680 1-631): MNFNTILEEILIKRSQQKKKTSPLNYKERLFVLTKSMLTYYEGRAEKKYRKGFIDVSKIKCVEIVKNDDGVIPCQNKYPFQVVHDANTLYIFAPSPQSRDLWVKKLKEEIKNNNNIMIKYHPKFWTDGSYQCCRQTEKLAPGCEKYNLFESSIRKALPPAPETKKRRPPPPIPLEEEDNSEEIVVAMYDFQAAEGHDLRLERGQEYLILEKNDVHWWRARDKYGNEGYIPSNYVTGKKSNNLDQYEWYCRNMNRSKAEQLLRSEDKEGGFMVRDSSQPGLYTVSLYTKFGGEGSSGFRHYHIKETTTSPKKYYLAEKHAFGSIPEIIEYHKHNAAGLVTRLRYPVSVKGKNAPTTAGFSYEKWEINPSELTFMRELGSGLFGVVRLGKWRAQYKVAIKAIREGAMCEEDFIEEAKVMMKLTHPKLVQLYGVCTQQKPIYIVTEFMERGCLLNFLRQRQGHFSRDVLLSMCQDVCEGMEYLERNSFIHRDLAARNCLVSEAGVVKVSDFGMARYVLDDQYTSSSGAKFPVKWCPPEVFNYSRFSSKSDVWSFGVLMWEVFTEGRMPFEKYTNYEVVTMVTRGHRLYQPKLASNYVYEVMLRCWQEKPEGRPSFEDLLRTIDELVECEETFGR

[6] = biological target: C-Raf (Homo sapiens, UniProt P04049); assay: Kinase activity assay, C-Raf
[7] = biological target: Btk (Homo sapiens, UniProt Q06187); assay: Kinase activity assay, Btk
[8] = biological target: Kdr (Homo sapiens, UniProt P35968); assay: Kinase activity assay, Kdr
[9] = biological target: Kit (Homo sapiens, UniProt P10721); assay: Kinase activity assay, Kit
[10] = biological target: MAP4K4 (Homo sapiens, UniProt O95819); assay: Kinase activity assay, MAP4K4
[11] = biological target: Fms (Homo sapiens, UniProt P07333); assay: Kinase activity assay, Fms
[12] = biological target: T2, A-Raf (Homo sapiens, UniProt P10398); assay: Kinase activity assay, A-Raf
T2 sequence (P10398 1-606): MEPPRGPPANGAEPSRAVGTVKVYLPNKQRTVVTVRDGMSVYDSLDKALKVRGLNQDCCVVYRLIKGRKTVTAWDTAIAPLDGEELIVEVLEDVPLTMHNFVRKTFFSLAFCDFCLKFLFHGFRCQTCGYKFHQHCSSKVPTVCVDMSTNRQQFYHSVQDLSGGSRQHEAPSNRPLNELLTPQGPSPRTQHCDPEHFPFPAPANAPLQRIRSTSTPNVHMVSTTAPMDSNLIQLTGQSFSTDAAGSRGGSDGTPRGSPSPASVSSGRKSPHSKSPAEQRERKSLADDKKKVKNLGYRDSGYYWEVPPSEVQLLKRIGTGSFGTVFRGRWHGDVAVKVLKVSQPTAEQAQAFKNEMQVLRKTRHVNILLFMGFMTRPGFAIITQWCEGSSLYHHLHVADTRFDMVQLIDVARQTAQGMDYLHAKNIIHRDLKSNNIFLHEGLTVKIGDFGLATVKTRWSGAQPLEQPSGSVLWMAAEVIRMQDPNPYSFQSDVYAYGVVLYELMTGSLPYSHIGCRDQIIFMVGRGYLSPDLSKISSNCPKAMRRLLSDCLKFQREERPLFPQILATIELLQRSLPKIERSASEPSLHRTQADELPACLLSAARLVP

Sequence of C-Raf (P04049 whole entry): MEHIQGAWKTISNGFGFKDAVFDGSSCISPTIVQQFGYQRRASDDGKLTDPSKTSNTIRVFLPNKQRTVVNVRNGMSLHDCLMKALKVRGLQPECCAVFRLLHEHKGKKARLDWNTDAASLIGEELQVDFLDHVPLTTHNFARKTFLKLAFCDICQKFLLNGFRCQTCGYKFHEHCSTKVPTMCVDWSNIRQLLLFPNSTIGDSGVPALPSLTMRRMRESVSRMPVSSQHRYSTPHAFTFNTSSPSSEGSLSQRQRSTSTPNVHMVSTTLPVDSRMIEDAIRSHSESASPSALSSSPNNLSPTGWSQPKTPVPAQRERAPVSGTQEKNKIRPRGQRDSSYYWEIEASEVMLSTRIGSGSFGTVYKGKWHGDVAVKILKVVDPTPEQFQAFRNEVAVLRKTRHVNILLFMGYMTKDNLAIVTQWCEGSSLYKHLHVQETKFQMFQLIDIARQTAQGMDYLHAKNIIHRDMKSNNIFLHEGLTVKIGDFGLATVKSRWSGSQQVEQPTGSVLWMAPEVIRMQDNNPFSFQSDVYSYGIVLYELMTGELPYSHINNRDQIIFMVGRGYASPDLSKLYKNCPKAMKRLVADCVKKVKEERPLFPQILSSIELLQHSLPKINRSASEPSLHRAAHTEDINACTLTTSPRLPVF
Sequence of Kdr (P35968 20-1356): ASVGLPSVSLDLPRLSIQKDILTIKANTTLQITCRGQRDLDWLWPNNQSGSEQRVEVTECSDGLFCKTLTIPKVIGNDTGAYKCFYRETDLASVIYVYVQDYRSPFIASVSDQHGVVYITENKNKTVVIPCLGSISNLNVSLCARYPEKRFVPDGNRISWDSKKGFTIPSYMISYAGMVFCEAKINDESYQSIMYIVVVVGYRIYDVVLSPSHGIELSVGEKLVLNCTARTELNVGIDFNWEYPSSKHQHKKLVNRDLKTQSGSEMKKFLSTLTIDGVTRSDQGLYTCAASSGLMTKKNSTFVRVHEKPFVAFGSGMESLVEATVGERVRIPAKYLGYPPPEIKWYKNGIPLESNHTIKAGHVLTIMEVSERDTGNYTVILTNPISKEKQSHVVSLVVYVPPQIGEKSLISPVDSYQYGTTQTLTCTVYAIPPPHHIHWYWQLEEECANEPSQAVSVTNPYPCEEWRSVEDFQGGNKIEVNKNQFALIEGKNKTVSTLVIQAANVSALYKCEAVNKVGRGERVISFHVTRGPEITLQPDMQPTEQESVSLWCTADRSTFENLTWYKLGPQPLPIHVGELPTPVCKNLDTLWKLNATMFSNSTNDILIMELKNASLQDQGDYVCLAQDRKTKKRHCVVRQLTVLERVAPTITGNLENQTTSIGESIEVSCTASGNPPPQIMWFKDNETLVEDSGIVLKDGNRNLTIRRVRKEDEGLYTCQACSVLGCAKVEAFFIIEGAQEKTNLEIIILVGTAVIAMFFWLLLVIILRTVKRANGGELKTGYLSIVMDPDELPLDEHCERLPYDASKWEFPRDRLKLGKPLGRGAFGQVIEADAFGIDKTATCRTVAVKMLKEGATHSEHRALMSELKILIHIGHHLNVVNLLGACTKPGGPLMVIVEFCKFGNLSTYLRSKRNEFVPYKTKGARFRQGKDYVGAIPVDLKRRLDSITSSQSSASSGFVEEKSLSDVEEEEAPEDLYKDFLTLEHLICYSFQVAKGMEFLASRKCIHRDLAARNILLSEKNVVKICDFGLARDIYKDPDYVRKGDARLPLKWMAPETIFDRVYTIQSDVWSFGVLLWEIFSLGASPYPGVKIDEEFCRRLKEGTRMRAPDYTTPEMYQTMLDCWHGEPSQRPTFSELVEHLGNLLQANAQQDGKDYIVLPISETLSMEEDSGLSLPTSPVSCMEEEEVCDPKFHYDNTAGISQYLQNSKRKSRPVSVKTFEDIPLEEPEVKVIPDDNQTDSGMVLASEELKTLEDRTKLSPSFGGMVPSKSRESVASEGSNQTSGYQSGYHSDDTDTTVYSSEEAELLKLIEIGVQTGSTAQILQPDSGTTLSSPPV
Sequence of Btk (Q06187 whole entry): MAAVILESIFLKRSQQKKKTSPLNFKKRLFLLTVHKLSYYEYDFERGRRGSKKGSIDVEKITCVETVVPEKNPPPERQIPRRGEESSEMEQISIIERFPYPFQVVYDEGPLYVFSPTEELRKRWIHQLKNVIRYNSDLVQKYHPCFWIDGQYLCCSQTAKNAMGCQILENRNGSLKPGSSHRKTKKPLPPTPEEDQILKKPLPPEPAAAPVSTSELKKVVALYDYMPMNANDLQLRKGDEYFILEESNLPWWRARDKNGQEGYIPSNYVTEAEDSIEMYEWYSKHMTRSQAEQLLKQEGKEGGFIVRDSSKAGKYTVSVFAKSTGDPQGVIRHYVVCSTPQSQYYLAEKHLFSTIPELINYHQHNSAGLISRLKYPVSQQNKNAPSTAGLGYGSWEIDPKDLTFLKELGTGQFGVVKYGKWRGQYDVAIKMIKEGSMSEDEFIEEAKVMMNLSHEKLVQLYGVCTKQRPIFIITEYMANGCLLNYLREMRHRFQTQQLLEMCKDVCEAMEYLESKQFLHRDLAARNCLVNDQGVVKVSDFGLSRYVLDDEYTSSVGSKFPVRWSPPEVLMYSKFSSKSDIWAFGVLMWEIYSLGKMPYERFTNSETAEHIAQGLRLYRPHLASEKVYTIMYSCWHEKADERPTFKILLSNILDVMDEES
Sequence of Src (P12931 whole entry): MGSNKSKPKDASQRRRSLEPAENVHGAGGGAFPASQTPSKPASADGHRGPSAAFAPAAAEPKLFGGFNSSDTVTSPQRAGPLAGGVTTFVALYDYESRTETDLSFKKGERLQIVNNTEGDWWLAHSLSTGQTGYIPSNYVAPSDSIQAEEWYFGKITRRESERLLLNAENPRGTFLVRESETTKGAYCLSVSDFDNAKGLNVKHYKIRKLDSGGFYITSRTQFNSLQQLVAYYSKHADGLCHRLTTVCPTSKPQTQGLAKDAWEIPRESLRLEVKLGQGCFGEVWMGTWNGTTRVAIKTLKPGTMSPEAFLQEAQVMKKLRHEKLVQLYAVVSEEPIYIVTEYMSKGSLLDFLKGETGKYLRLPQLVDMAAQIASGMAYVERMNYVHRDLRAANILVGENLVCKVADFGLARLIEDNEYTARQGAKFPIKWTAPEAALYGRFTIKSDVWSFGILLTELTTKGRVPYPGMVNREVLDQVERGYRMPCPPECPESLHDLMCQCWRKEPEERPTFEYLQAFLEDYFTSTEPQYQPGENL
Sequence of PI3Kα (P42336 whole entry): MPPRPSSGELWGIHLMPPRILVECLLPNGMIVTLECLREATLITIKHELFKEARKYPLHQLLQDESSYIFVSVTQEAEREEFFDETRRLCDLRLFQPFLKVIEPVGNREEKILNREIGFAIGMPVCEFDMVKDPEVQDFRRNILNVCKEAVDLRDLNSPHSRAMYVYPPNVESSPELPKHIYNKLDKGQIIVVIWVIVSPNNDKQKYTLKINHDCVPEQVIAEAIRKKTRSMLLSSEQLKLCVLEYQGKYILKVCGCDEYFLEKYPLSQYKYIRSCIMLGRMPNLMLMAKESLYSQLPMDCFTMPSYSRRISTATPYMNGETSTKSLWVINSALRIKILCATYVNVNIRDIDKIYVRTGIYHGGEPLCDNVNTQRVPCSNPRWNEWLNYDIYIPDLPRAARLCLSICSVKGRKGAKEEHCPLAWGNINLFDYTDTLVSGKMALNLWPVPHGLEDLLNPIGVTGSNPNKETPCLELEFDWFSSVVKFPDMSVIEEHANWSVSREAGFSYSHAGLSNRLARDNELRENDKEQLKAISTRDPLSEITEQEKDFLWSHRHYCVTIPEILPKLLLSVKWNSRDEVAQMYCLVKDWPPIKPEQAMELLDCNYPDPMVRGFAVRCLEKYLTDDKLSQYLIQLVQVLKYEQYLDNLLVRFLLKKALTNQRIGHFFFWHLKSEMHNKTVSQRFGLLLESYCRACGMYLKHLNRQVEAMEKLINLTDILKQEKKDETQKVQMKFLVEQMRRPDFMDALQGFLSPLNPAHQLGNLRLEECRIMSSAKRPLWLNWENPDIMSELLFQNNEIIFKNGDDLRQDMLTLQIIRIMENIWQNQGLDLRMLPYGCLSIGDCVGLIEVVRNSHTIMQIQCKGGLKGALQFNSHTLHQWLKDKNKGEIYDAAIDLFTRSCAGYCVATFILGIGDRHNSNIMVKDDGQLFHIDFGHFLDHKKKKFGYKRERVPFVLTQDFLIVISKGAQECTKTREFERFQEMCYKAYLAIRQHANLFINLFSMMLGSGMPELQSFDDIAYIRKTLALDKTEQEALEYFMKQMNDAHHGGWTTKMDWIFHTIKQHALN
Sequence of PI3Kα (P27986 whole entry partner): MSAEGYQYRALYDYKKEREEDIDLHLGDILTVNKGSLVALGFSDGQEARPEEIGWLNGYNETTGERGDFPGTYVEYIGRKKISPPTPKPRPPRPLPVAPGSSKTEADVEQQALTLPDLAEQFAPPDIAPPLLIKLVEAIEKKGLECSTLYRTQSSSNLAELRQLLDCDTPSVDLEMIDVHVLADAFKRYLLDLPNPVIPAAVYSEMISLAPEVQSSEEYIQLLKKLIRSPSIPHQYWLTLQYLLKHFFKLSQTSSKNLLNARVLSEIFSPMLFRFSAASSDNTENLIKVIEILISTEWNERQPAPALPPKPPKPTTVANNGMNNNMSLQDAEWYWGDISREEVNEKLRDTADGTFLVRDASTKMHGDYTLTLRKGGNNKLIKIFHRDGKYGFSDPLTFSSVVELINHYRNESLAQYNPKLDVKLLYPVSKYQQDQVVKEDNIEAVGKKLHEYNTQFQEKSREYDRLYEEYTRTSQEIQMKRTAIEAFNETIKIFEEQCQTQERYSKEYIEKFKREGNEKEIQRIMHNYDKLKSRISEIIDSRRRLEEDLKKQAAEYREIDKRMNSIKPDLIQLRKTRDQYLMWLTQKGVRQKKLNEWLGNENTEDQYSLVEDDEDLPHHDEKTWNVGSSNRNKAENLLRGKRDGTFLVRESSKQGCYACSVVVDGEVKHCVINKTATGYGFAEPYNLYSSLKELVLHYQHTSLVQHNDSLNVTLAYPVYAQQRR

Structure (SMILES) | IC50 [1] | IC50 [2] | IC50 [3] | IC50 [4] | IC50 [5] | IC50 [6] | IC50 [7] | IC50 [8] | IC50 [9] | IC50 [10] | IC50 [11] | IC50 [12]
COc1ncc(-c2cnc3[nH]cc(C(=O)c4c(F)ccc(NS(C)(=O)=O)c4F)c3c2)cn1 [P-2295, N-{2,4-Difluoro-3-[5-(2-methoxy-pyrimidin-5-yl)-1H-pyrrolo[2,3-b]pyridine-3-carbonyl]-phenyl}-methanesulfonamide] | ≤ 10 µM |  | ≤ 10 µM | ≤ 10 µM |  | ≤ 10 µM | ≤ 10 µM | ≤ 10 µM |  |  |  | 
CCC(C)S(=O)(=O)Nc1ccc(F)c(C(=O)c2c[nH]c3ncc(-c4cnc(OC)nc4)cc23)c1F (stereo not shown) [P-2323, Butane-2-sulfonic acid {2,4-difluoro-3-[5-(2-methoxy-pyrimidin-5-yl)-1H-pyrrolo[2,3-b]pyridine-3-carbonyl]-phenyl}-amide] | ≤ 10 µM | ≤ 10 µM | ≤ 10 µM | ≤ 10 µM | ≤ 10 µM | ≤ 10 µM | ≤ 10 µM | ≤ 10 µM |  |  |  | 
COc1ncc(-c2cnc3[nH]cc(C(=O)c4c(F)ccc(NS(=O)(=O)CCC(F)(F)F)c4F)c3c2)cn1 [P-2333] | ≤ 10 µM | ≤ 10 µM | ≤ 10 µM | ≤ 10 µM | ≤ 10 µM | ≤ 10 µM |  | ≤ 10 µM | ≤ 10 µM |  |  | 
COc1ncc(-c2cnc3[nH]cc(C(=O)c4c(F)ccc(NS(=O)(=O)CC(F)(F)F)c4F)c3c2)cn1 [P-2342, 2,2,2-Trifluoro-ethanesulfonic acid {2,4-difluoro-3-[5-(2-methoxy-pyrimidin-5-yl)-1H-pyrrolo[2,3-b]pyridine-3-carbonyl]-phenyl}-amide] | ≤ 10 µM | ≤ 10 µM | ≤ 10 µM | ≤ 10 µM | ≤ 10 µM | ≤ 10 µM |  |  |  |  |  | 
COc1ncc(-c2cnc3[nH]cc(C(=O)c4c(F)ccc(NS(=O)(=O)C5CCC5)c4F)c3c2)cn1 [P-2373, Cyclobutanesulfonic acid {2,4-difluoro-3-[5-(2-methoxy-pyrimidin-5-yl)-1H-pyrrolo[2,3-b]pyridine-3-carbonyl]-phenyl}-amide] | ≤ 10 µM | ≤ 10 µM | ≤ 10 µM | ≤ 10 µM | ≤ 10 µM | ≤ 10 µM |  | ≤ 10 µM |  |  |  | 
COc1ncc(-c2cnc3[nH]cc(C(=O)c4c(F)ccc(NS(=O)(=O)N(C)C)c4F)c3c2)cn1 [P-2399, N,N-dimethylamino-sulfonic acid {2,4-difluoro-3-[5-(2-methoxy-pyrimidin-5-yl)-1H-pyrrolo[2,3-b]pyridine-3-carbonyl]-phenyl}-amide] | ≤ 10 µM | ≤ 10 µM | ≤ 10 µM | ≤ 10 µM | ≤ 10 µM | ≤ 10 µM | ≤ 10 µM | ≤ 10 µM |  |  |  | 
CCN(CC)S(=O)(=O)Nc1ccc(F)c(C(=O)c2c[nH]c3ncc(-c4cnc(OC)nc4)cc23)c1F [P-2401, N,N-diethylamino-sulfonic acid {2,4-difluoro-3-[5-(2-methoxy-pyrimidin-5-yl)-1H-pyrrolo[2,3-b]pyridine-3-carbonyl]-phenyl}-amide] | ≤ 10 µM | ≤ 10 µM |  | ≤ 10 µM | ≤ 10 µM | ≤ 10 µM | ≤ 10 µM | ≤ 10 µM | ≤ 10 µM |  |  | 
COc1ncc(-c2cnc3[nH]cc(C(=O)c4c(F)ccc(NS(=O)(=O)N5CCOCC5)c4F)c3c2)cn1 [P-2402, Morpholine-4-sulfonic acid {2,4-difluoro-3-[5-(2-methoxy-pyrimidin-5-yl)-1H-pyrrolo[2,3-b]pyridine-3-carbonyl]-phenyl}-amide] | ≤ 10 µM | ≤ 10 µM | ≤ 10 µM | ≤ 10 µM | ≤ 10 µM | ≤ 10 µM | ≤ 10 µM |  |  |  |  | 

The remaining lines, values ahead:

IC50 [1] | IC50 [2] | IC50 [3] | IC50 [4] | IC50 [5] | IC50 [6] | IC50 [7] | IC50 [8] | IC50 [9] | IC50 [10] | IC50 [11] | IC50 [12] | Structure (SMILES)
≤ 10 µM | ≤ 10 µM | ≤ 10 µM | ≤ 10 µM | ≤ 10 µM | ≤ 10 µM |  |  |  |  |  |  | COc1ncc(-c2cnc3[nH]cc(C(=O)c4c(F)ccc(NS(=O)(=O)c5ccc(F)cc5)c4F)c3c2)cn1 [P-2040, N-{2,4-Difluoro-3-[5-(2-methoxy-pyrimidin-5-yl)-1H-pyrrolo[2,3-b]pyridine-3-carbonyl]-phenyl}-4-fluoro-benzenesulfonamide]
≤ 10 µM | ≤ 10 µM | ≤ 10 µM | ≤ 10 µM | ≤ 10 µM | ≤ 10 µM | ≤ 10 µM |  |  |  |  |  | COc1ncc(-c2cnc3[nH]cc(C(=O)c4c(F)ccc(NS(=O)(=O)c5cccc(F)c5)c4F)c3c2)cn1 [P-2045, N-{2,4-Difluoro-3-[5-(2-methoxy-pyrimidin-5-yl)-1H-pyrrolo[2,3-b]pyridine-3-carbonyl]-phenyl}-3-fluoro-benzenesulfonamide]
≤ 10 µM | ≤ 10 µM | ≤ 10 µM | ≤ 10 µM | ≤ 10 µM | ≤ 10 µM | ≤ 10 µM | ≤ 10 µM |  |  |  |  | COc1ncc(-c2cnc3[nH]cc(C(=O)c4c(F)ccc(NS(=O)(=O)c5ccccn5)c4F)c3c2)cn1 [P-2079]
≤ 10 µM | ≤ 10 µM | ≤ 10 µM | ≤ 10 µM | ≤ 10 µM | ≤ 10 µM | ≤ 10 µM | ≤ 10 µM |  |  |  |  | COc1ncc(-c2cnc3[nH]cc(C(=O)c4c(F)ccc(NS(=O)(=O)c5ncn[nH]5)c4F)c3c2)cn1 [P-2080]
≤ 10 µM | ≤ 10 µM | ≤ 10 µM | ≤ 10 µM |  | ≤ 10 µM | ≤ 10 µM | ≤ 10 µM | ≤ 10 µM | ≤ 10 µM |  |  | NC(=O)c1cccc(-c2cnc3[nH]cc(C(=O)c4cccc(NS(=O)(=O)c5cccnc5)c4)c3c2)c1 [P-2147, 3-{3-[3-(Pyridine-3-sulfonylamino)-benzoyl]-1H-pyrrolo[2,3-b]pyridin-5-yl}-benzamide]
≤ 10 µM | ≤ 10 µM | ≤ 10 µM | ≤ 10 µM |  | ≤ 10 µM |  | ≤ 10 µM | ≤ 10 µM | ≤ 10 µM | ≤ 10 µM | ≤ 10 µM | CCCS(=O)(=O)Nc1ccc(F)c(C(=O)c2c[nH]c3ncc(-c4ccc(O)nc4)cc23)c1F [P-2234, Propane-1-sulfonic acid {2,4-difluoro-3-[5-(6-hydroxy-pyridin-3-yl)-1H-pyrrolo[2,3-b]pyridine-3-carbonyl]-phenyl}-amide]
≤ 10 µM | ≤ 10 µM | ≤ 10 µM | ≤ 10 µM |  | ≤ 10 µM | ≤ 10 µM | ≤ 10 µM |  |  |  |  | CCS(=O)(=O)Nc1ccc(F)c(C(=O)c2c[nH]c3ncc(-c4cnc(OC)nc4)cc23)c1F [P-2286, Ethanesulfonic acid {2,4-difluoro-3-[5-(2-methoxy-pyrimidin-5-yl)-1H-pyrrolo[2,3-b]pyridine-3-carbonyl]-phenyl}-amide]
≤ 10 µM | ≤ 10 µM | ≤ 10 µM | ≤ 10 µM | ≤ 10 µM | ≤ 10 µM | ≤ 10 µM | ≤ 10 µM |  |  |  |  | COc1ncc(-c2cnc3[nH]cc(C(=O)c4c(F)ccc(NS(=O)(=O)C(C)C)c4F)c3c2)cn1 [P-2287, Propane-2-sulfonic acid {2,4-difluoro-3-[5-(2-methoxy-pyrimidin-5-yl)-1H-pyrrolo[2,3-b]pyridine-3-carbonyl]-phenyl}-amide]
